Measured values reported in ChEMBL document CHEMBL2007661, “Compounds: GSK PKIS; Assays: UNC Frye lab” (2012).
Several values for one entry are separate records, joined by “and”; a condition that tells them apart may be missing. Equal entries are not always repeated.

Tests used:
Conditions in all cases: at 1 µM
[1] = target: T1, Inhibitor of nuclear factor kappa-B kinase subunit alpha (Homo sapiens) (UniProt O15111)
T1 sequence (whole entry): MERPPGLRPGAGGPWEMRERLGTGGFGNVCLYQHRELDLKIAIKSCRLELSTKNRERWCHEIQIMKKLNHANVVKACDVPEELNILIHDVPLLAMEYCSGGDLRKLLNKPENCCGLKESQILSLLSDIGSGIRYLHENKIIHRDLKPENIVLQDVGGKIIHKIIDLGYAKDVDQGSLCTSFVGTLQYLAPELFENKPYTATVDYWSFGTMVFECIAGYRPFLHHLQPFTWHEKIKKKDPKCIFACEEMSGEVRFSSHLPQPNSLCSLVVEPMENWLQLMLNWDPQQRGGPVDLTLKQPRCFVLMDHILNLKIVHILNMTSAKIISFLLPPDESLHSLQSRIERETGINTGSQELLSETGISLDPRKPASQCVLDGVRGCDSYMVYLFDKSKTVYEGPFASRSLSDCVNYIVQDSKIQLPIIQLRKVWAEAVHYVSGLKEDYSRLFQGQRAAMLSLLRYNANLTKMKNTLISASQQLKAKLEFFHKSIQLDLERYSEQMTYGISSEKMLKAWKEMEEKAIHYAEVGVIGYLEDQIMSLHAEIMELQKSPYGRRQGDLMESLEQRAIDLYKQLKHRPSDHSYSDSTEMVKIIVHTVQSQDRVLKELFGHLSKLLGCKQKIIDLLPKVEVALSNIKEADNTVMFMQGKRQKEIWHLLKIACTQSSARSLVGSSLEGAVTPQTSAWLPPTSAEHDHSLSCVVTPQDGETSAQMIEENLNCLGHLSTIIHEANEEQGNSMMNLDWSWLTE

[2] = target: T2, Inhibitor of nuclear factor kappa-B kinase subunit beta (Homo sapiens) (UniProt O14920)
T2 sequence (whole entry): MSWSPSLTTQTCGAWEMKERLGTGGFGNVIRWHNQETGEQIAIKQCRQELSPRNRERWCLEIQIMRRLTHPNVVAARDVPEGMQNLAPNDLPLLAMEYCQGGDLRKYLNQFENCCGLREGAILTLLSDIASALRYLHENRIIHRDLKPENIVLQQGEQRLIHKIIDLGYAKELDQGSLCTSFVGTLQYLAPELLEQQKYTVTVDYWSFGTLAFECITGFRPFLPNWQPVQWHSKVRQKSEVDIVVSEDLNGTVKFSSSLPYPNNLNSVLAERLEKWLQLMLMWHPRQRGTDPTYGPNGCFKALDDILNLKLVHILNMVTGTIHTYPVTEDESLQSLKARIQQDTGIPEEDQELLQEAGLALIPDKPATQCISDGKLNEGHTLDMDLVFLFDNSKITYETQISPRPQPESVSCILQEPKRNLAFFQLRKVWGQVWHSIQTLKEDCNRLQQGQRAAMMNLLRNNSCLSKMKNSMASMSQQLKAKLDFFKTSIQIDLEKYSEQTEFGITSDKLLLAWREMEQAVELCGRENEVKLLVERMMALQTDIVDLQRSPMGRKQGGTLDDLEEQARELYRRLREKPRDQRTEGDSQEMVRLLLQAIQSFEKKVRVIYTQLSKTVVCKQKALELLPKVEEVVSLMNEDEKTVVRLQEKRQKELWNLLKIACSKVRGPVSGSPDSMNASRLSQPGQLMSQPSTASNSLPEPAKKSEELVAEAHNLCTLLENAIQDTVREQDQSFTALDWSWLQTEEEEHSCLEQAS

[3] = target: T3, Inhibitor of nuclear factor kappa-B kinase subunit epsilon (Homo sapiens) (UniProt Q14164)
T3 sequence (whole entry): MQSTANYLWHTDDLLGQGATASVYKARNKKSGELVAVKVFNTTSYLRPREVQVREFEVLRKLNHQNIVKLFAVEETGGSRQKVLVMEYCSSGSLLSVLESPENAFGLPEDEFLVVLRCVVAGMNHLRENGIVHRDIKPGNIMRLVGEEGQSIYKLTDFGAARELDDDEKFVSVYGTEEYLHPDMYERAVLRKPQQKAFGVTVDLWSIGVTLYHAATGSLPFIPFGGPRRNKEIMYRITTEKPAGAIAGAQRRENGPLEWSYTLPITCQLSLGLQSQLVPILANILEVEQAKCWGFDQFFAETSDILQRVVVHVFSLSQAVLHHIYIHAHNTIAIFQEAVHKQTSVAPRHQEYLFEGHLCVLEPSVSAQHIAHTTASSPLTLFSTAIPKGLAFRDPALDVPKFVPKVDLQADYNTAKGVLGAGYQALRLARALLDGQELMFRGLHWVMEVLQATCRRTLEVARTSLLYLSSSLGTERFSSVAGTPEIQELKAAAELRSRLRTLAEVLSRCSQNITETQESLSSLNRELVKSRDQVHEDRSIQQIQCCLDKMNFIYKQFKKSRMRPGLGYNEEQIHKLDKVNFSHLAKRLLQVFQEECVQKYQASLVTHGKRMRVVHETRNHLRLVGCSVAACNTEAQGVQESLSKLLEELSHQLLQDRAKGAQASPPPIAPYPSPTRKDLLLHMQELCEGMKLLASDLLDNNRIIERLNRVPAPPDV

[4] = target: T4, Serine/threonine-protein kinase TBK1 (Homo sapiens) (UniProt Q9UHD2)
T4 sequence (whole entry): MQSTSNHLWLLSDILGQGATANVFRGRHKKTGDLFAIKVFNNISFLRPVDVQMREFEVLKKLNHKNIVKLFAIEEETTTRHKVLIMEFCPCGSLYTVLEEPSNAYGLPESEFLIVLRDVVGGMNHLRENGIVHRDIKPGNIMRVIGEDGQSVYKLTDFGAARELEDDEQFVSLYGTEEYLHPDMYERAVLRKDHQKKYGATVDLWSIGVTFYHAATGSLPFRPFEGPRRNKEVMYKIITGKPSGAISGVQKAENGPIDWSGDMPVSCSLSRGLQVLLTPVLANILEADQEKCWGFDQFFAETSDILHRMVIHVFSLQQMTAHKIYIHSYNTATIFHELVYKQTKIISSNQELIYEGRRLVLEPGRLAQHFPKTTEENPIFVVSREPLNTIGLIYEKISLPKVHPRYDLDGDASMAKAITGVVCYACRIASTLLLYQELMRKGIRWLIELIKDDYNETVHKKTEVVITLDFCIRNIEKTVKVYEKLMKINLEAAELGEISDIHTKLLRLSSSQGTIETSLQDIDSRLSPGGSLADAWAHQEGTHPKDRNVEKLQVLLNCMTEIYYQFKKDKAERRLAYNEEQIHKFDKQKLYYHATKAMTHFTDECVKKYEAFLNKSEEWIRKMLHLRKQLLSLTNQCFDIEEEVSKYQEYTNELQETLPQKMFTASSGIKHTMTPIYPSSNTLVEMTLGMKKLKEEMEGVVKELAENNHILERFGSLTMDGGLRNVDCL

Compound: CCOc1nccc2c1nc(-c1nonc1N)n2CC
- inhibition [1]: 15% and 18%
- inhibition [2]: -2% and -3%
- inhibition [3]: 2% and 0%
- inhibition [4]: -2% and 0%

Compound: NS(=O)(=O)c1ccc(N/N=C2\C(=O)Nc3ccc(-c4cnco4)cc32)cc1
- inhibition [1]: -3%
- inhibition [2]: -2%
- inhibition [3]: 39% and 41%
- inhibition [4]: 61% and 57%

Compound: CS(=O)(=O)CCNCc1nc(-c2ccc3ncnc(Nc4ccc(F)c(Cl)c4)c3c2)cs1
- inhibition [1]: 2%
- inhibition [2]: -2% and -3%
- inhibition [3]: -3% and -1%
- inhibition [4]: 1% and -2%

Compound: N#Cc1ccc(Oc2nccc(-c3c(-c4ccc(F)cc4)ncn3C3CCNCC3)n2)cc1
- inhibition [1]: -2% and -1%
- inhibition [2]: -2% and -1%
- inhibition [3]: 2% and 4%
- inhibition [4]: 8% and 3%

Compound: Cc1cc(O)cc(C)c1/C=C/c1cncc(-c2nn[nH]n2)c1
- inhibition [1]: 4% and 5%
- inhibition [2]: -4% and -5%
- inhibition [3]: 2%
- inhibition [4]: 3%

Compound: CCNC(=O)O[C@H]1CN[C@H](C#Cc2cc3ncnc(Nc4ccc(OCc5cccc(F)c5)c(Cl)c4)c3s2)C1
- inhibition [1]: 4% and 5%
- inhibition [2]: -5% and -3%
- inhibition [3]: 1% and 3%
- inhibition [4]: 0% and 3%

Compound: CCCNc1cccc(-n2ncc3c(N/N=C/c4ccncc4)ncnc32)c1
- inhibition [1]: 4%
- inhibition [2]: -3% and -2%
- inhibition [3]: 9% and 10%
- inhibition [4]: 18%

Compound: CCn1c(-c2nonc2N)nc2c(C#CC(C)(C)O)nc(OC[C@H](N)c3ccccc3)cc21
- inhibition [1]: 10% and 11%
- inhibition [2]: -4% and 1%
- inhibition [3]: 36% and 35%
- inhibition [4]: 8% and 11%

Compound: CN1CCN(CCCNc2nc3ccc(Oc4ccc(NC(=O)Nc5cc(C(F)(F)F)ccc5F)cc4)cc3[nH]2)CC1
- inhibition [1]: 4%
- inhibition [2]: -5%
- inhibition [3]: -2%
- inhibition [4]: 0%

Compound: ON=C1CCc2cc(-c3nc(C4CCNCC4)[nH]c3-c3ccncc3)ccc21
- inhibition [1]: -2% and -3%
- inhibition [2]: 6% and 3%
- inhibition [3]: 1% and 4%
- inhibition [4]: 1%

Compound: CS(=O)(=O)CCNCc1coc(-c2ccc3ncnc(Nc4ccc(OCc5ccccc5)cc4)c3c2)c1
- inhibition [1]: 2% and -8%
- inhibition [2]: 0% and -1%
- inhibition [3]: -1% and 0%
- inhibition [4]: -1%

Compound: COc1ccc2ncnc(Nc3ccc(OCc4ccccc4)cc3)c2c1
- inhibition [1]: 2% and 3%
- inhibition [2]: -1% and 4%
- inhibition [3]: 1%
- inhibition [4]: 1% and -2%

Compound: Cc1cc(O)cc(C)c1/C=C/c1cncc(C(N)=O)c1
- inhibition [1]: 4% and 0%
- inhibition [2]: -5% and -4%
- inhibition [3]: -2%
- inhibition [4]: -3% and -6%

Compound: COc1cc(N2CCN(C(C)C)CC2)ccc1Nc1nc(Nc2cccc(F)c2C(=O)O)c2cc[nH]c2n1
- inhibition [1]: 2% and 3%
- inhibition [2]: -4% and -3%
- inhibition [3]: -1% and 0%
- inhibition [4]: -3% and 0%

Compound: CNC(=O)c1cncc(/C=C/c2c(C)cccc2C)c1
- inhibition [1]: -6% and -4%
- inhibition [2]: 1% and -2%
- inhibition [3]: 0% and -1%
- inhibition [4]: 3% and -1%

Compound: CCN(CC)S(=O)(=O)c1ccc(OC)c(Nc2ncc(-c3ccccc3)o2)c1
- inhibition [1]: 1%
- inhibition [2]: -1% and 2%
- inhibition [3]: 2% and 3%
- inhibition [4]: -2% and 2%

Compound: CCn1c(-c2nonc2N)nc2c(C#CC(C)(C)O)nc(O[C@@H](CN)c3ccccc3)cc21
- inhibition [1]: 17% and 19%
- inhibition [2]: -3% and -4%
- inhibition [3]: 99% and 98%
- inhibition [4]: 85% and 87%

Compound: CCCN1CCCC(c2ccc(Nc3nc(Nc4cc(F)ccc4C(N)=O)c4cc[nH]c4n3)c(OC)c2)C1 (stereo not given)
- inhibition [1]: -4% and -3%
- inhibition [2]: -1% and 1%
- inhibition [3]: 11% and 9%
- inhibition [4]: 9% and 11%

Compound: N#Cc1c(NC(=O)CN2CCOCC2)sc2c1CCCC2
- inhibition [1]: 0% and 1%
- inhibition [2]: -1% and -3%
- inhibition [3]: -2%
- inhibition [4]: -6%

Compound: COc1ccccc1Nc1ncc(-c2ccccc2)o1
- inhibition [1]: -1% and 3%
- inhibition [2]: 3% and 0%
- inhibition [3]: 5%
- inhibition [4]: 10% and 5%

Compound: COc1ccc2cc(-c3c(-c4ccncc4)nc(-c4ccc(S(C)(=O)=O)cc4C)n3C)ccc2c1
- inhibition [1]: 5%
- inhibition [2]: -2%
- inhibition [3]: 1% and 2%
- inhibition [4]: -4% and -1%

Compound: C/C(Nc1ccc(S(N)(=O)=O)cc1)=C1/C(=O)Nc2ccccc21
- inhibition [1]: 2% and 1%
- inhibition [2]: -3% and -2%
- inhibition [3]: 5% and 6%
- inhibition [4]: 11% and 14%

Compound: COc1cccc(-n2ncc3c(N/N=C/c4ccc(C(=O)NCCN(C)C)cc4)ncnc32)c1
- inhibition [1]: 7% and 19%
- inhibition [2]: -5% and -6%
- inhibition [3]: 29% and 27%
- inhibition [4]: 28% and 31%

Compound: CS(=O)(=O)Nc1ccc(-c2ccc3c(NC(=O)C4CC4)n[nH]c3c2)cc1
- inhibition [1]: 5% and 3%
- inhibition [2]: -3% and 2%
- inhibition [3]: 3% and 2%
- inhibition [4]: 3% and 5%

Compound: Fc1ccc(-c2c(-c3ccncc3)nc3n2CCS3)cc1
- inhibition [1]: -4%
- inhibition [2]: 0% and -2%
- inhibition [3]: -1% and 0%
- inhibition [4]: 2% and 3%

Compound: CN(C)CCOc1ccc(-c2cc(-c3ccc4c(c3)CCC4=NO)c(-c3ccncc3)o2)cc1
- inhibition [1]: 0%
- inhibition [2]: -1% and -3%
- inhibition [3]: 3% and 4%
- inhibition [4]: 5% and 6%

Compound: Cc1ccc2c(-c3ccnc(Nc4ccc5c(c4)OCCO5)n3)c(-c3ccc(C(F)(F)F)cc3)nn2n1
- inhibition [1]: 9% and 1%
- inhibition [2]: -1% and -5%
- inhibition [3]: 0% and -3%
- inhibition [4]: -5% and 1%

Compound: COc1ccc(-c2nn3ncccc3c2-c2ccnc(Nc3ccc(Cl)c(C(F)(F)F)c3)n2)cc1
- inhibition [1]: -2% and 3%
- inhibition [2]: -4% and -5%
- inhibition [3]: -1% and -2%
- inhibition [4]: -6% and -3%

Compound: CCn1c(-c2nonc2N)nc2cncc(C(=O)NCCNC)c21
- inhibition [1]: 30%
- inhibition [2]: 1% and -2%
- inhibition [3]: 13% and 14%
- inhibition [4]: 17% and 13%

Compound: COc1cc2ncn(-c3cc(OCc4cccs4)c(C(N)=O)s3)c2cc1OC
- inhibition [1]: 5% and 3%
- inhibition [2]: -5% and -6%
- inhibition [3]: 1%
- inhibition [4]: 35% and 33%
